Assays:
Type in all cases: biochemical
PHF8 = PHF8 (Homo sapiens (Human), UniProt Q9UPP1); assay: PHF8 in vitro enzyme inhibition assay (TR-FRET); conditions: 3 nM PHF8, H3K9me1-biotin peptide
Text: (§1) This assay determines the ability of a test compound to inhibit FBXL11, FBXL10, and PHF8 demethylase activity. Baculovirus expressed FBXL11 (GenBank Accession #NM_012308, AA1-1162) was purchased from BPS Bioscience (Cat#50102). Baculovirus expressed FBXL10 (GenBank Accession #NM_032590, AA 1-650) was purchased from BPS Bioscience (Cat #50120). Baculovirus expressed PHF8 (GenBank Accession NP_055922.1) was purchased from Active Motif (Cat#31435).
The ability of test compounds to inhibit the activity of PHF8 was determined in 384-well plate format under the following reaction conditions: 3 nM PHF8, 200 nM H3K9me1-biotin labeled peptide (Anaspec cat #64358), 0.5 μM alpha-ketoglutaric acid in assay buffer of 50 mM HEPES, pH7.3, 0.005% Brij35, 0.5 mM TCEP, 0.2 mg/ml BSA, 50 μM sodium L-ascorbate, and 5 μM ammonium iron(II) sulfate. Reaction product was determined quantitatively by TR-FRET after the addition of detection reagent Phycolink Streptavidin-allophycocyanin (Prozyme) and Europium-anti-unmodified-histone H3 lysine 9/lysine27 (H3K9/K27) antibody (PerkinElmer) in the presence of 5 mM EDTA in LANCE detection buffer (PerkinElmer) at a final concentration of 25 nM and 0.5 nM, respectively.
The assay reaction was initiated by the following: 2 μl of the mixture of 600 nM H3K9me1-biotin labeled peptide and 1.5 μM alpha-ketoglutaric acid with 2 μl of 11-point serial diluted inhibitor in 3% DMSO were added to each well of the plate, followed by the addition of 2 μl of 9 nM PHF8 to initiate the reaction. The reaction mixture was incubated at room temperature for 15 minutes, and terminated by the addition of 6 μl of 5 mM EDTA in LANCE detection buffer containing 50 nM Phycolink Streptavidin-allophycocyanin and 1 nM Europium-anti-unmodified H3K9/K27 antibody. Plates were read by EnVision Multilabel Reader in TR-FRET mode (excitation at 320 nm, emission at 615 nm and 665 nm) after 1 hour incubation at room temperature. A ratio was calculated (665/615) for each well and fitted to determine inhibition constant (IC50).
(§2) The ability of the compounds disclosed herein to inhibit demethylase activity was quantified and the respective IC50 value was determined.

FBXL10 = FBXL10 (Homo sapiens (Human), UniProt Q8NHM5); assay: FBXL10 in vitro enzyme inhibition assay (AlphaScreen); conditions: 0.3 nM FBXL10, H3K36me2-biotin peptide
Text: as §1
(§3) The ability of test compounds to inhibit the activity of FBXL10 was determined in 384-well plate format under the following reaction conditions: 0.3 nM FBXL10, 30 nM H3K36me2-biotin labeled peptide (Anaspec cat #64442), 0.2 μM alpha-ketoglutaric acid in assay buffer of 50 mM HEPES, pH7.3, 0.005% Brij35, 0.5 mM TCEP, 0.2 mg/ml BSA, 50 μM sodium L-ascorbate, 5 μM ammonium iron(II) sulfate. Reaction product is determined quantitatively by AlphaScreen detection after the addition of detection reagents anti-H3K36me1 antibody, AlphaScreen® Streptavidin-coated Donor beads, and AlphaScreen® Protein A Acceptor beads in 50 mM HEPES, pH7.3, 10 mM NaCl, 0.005% Brij35, 5 mM EDTA, 2 mg/ml BSA to final 10 μg/ml beads.
(§4) The assay reaction was initiated by the following: 3 μl of the mixture of 90 nM H3K36me2-biotin labeled peptide and 0.6 μM alpha-ketoglutaric acid with 3 μl of 11-point serial diluted inhibitor in 3% DMSO are added to each well of 384 well Proxiplate (Perkin Elmer), followed by the addition of 3 μl of 0.9 nM FBXL10 to initiate the reaction. The reaction mixture is incubated at room temperature for 1 hour, and terminated by the addition of 3 μl of appropriate dilution of anti H3K36me1 antibody in 50 mM HEPES, pH7.3, 10 mM NaCl, 0.005% Brij35, 5 mM EDTA, 2 mg/ml BSA. Plates will then incubated at room temperature for 40 minutes, followed by addition of 3 ul of 50 μg/ml AlphaScreen® Streptavidin-coated Donor beads and AlphaScreen® Protein A Acceptor beads in 50 mM HEPES, pH7.3, 10 mM NaCl, 0.005% Brij35, 5 mM EDTA, 2 mg/ml BSA. Plates will then be read by EnVision Multilabel Reader in AlphaScreen mode after minimum 2 hour incubation at room temperature. The AlphaScreen signal for each well is used to determine inhibition constant (IC50).
as §2

FBXL11 = FBXL11 (Homo sapiens (Human), UniProt Q9Y2K7); assay: FBXL11 in vitro enzyme inhibition assay (AlphaScreen); conditions: 0.15 nM FBXL11, H3K36me2-biotin peptide
Text: as §1
as §3, with “FBXL11” for “FBXL10”, “0.15” for “0.3”, “FBXL11,” for “FBXL10,”
as §4, with “0.45” for “0.9”, “FBXL11” for “FBXL10”
The ability of the compounds disclosed herein to inhibit demethylase activity was quantified and the respective IC50 value was determined. Table 3 provides the IC50 values of various compounds disclosed herein.

FBXL11, sequence (Q9Y2K7 whole entry): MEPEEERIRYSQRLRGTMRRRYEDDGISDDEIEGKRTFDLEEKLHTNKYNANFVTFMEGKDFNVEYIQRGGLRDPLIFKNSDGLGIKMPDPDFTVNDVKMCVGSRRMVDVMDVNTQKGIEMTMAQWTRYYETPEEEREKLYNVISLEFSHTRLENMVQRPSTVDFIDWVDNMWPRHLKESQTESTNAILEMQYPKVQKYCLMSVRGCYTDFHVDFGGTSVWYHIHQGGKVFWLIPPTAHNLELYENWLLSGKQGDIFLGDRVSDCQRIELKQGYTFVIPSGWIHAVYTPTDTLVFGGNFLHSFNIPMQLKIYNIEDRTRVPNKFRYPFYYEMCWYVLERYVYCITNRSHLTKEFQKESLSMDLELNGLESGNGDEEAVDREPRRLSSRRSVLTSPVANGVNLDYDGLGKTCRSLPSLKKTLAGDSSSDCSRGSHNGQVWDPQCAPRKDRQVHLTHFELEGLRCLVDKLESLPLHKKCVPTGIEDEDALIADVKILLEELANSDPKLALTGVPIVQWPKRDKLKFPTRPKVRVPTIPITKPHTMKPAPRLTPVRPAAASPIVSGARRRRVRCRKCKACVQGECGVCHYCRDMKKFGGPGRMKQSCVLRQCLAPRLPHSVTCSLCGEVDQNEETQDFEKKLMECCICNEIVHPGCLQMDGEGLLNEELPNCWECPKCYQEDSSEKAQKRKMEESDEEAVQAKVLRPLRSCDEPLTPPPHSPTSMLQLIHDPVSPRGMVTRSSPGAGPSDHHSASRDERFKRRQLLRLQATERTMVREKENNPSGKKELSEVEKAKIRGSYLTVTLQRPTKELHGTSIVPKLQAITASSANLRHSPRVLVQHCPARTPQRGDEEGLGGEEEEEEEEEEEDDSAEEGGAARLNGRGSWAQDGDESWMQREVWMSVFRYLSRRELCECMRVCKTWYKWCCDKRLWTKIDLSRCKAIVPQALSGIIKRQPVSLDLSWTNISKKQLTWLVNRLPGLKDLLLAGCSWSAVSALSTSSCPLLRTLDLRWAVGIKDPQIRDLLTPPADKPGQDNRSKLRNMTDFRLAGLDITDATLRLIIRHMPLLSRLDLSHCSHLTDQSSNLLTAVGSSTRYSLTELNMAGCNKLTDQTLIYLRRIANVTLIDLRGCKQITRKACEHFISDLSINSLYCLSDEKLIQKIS
FBXL10, sequence (Q8NHM5 1-650): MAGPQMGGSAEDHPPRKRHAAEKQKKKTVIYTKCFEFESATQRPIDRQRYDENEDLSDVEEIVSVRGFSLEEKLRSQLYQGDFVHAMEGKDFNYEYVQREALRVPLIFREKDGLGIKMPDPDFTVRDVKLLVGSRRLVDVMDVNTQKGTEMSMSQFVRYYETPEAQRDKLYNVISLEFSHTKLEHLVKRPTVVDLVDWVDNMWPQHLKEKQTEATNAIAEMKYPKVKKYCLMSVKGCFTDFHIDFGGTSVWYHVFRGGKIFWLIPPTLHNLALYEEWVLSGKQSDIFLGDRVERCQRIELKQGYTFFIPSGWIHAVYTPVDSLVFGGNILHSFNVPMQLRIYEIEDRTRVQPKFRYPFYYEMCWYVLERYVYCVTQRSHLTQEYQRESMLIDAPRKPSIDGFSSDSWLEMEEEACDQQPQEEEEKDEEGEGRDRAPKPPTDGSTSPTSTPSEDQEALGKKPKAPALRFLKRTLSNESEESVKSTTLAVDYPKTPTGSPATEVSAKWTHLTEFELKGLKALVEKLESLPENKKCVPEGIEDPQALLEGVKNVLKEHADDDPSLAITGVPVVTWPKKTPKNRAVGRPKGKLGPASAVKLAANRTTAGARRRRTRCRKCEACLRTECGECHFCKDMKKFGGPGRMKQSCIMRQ
PHF8, sequence (Q9UPP1 37-1060): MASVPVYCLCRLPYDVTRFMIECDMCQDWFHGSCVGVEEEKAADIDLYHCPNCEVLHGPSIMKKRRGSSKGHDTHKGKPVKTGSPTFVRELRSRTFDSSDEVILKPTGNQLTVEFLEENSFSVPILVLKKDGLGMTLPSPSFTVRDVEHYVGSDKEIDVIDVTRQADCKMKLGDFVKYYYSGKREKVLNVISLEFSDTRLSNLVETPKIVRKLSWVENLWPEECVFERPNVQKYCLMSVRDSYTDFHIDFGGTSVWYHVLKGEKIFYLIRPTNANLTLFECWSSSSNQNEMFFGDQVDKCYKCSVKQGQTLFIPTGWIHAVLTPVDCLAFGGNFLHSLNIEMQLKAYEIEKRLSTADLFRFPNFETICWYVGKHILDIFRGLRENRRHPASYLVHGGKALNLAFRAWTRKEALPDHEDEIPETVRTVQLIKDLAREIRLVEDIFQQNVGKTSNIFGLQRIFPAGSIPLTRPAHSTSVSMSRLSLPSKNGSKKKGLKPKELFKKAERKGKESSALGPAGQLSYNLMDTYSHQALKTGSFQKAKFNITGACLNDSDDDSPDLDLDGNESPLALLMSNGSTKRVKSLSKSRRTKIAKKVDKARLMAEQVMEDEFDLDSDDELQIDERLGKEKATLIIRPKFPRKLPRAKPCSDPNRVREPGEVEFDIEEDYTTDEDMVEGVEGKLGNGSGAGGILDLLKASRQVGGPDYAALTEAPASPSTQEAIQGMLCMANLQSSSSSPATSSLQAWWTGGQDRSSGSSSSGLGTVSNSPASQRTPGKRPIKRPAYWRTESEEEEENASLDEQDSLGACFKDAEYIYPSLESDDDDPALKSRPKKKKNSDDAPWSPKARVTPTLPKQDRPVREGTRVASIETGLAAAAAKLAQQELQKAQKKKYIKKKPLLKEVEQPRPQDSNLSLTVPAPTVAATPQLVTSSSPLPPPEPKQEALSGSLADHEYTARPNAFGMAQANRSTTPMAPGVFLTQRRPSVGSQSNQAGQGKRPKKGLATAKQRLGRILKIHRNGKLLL

Compound: COc1ccccc1CCn1cnc(-c2cc(-c3c[nH]nn3)ccn2)c1 [Example 7, 2-[1-[2-(2-methoxyphenyl)ethyl]imidazol-4-yl]-4-(1H-triazol-4-yl)pyridine]
- IC50 (PHF8): 100 to 1000 nM
- IC50 (FBXL10): ≤ 100 nM
- IC50 (FBXL11): ≤ 100 nM

Compound: c1ccc2c(CCn3cnc(-c4cc(-c5c[nH]nn5)ccn4)c3)cccc2c1 [Example 23, 2-[1-(2-naphthalen-1-ylethyl)imidazol-4-yl]-4-(1H-triazol-4-yl)pyridine]
- IC50 (PHF8): 100 to 1000 nM
- IC50 (FBXL10): ≤ 100 nM
- IC50 (FBXL11): ≤ 100 nM

Compound: CCOc1ccccc1CCn1cnc(-c2cc(-c3c[nH]nn3)ccn2)c1 [Example 9, 2-[1-[2-(2-ethoxyphenyl)ethyl]imidazol-4-yl]-4-(1H-triazol-4-yl)pyridine]
- IC50 (PHF8): 100 to 1000 nM
- IC50 (FBXL10): ≤ 100 nM
- IC50 (FBXL11): ≤ 100 nM

Compound: c1ccc2c(c1)CCCC2Cn1cnc(-c2cc(-c3c[nH]nn3)ccn2)c1 (stereo not shown) [Example 8, 2-[1-(1,2,3,4-tetrahydronaphthalen-1-ylmethyl)imidazol-4-yl]-4-(1H-triazol-4-yl)pyridine]
- IC50 (PHF8): 100 to 1000 nM
- IC50 (FBXL10): ≤ 100 nM
- IC50 (FBXL11): ≤ 100 nM

Compound: FC(F)(F)c1cccc(Cn2cnc(-c3cc(-c4c[nH]nn4)ccn3)c2)c1Cl [Example 22, 2-[1-[[2-chloro-3-(trifluoromethyl)phenyl]methyl]imidazol-4-yl]-4-(1H-triazol-4-yl)pyridine]
- IC50 (PHF8): 100 to 1000 nM
- IC50 (FBXL10): ≤ 100 nM
- IC50 (FBXL11): ≤ 100 nM

Compound: Clc1cccc(Cn2cnc(-c3cc(-c4c[nH]nn4)ccn3)c2)c1Cl [Example 21, 2-[1-[(2,3-dichlorophenyl)methyl]imidazol-4-yl]-4-(1H-triazol-4-yl)pyridine]
- IC50 (PHF8): 100 to 1000 nM
- IC50 (FBXL10): ≤ 100 nM
- IC50 (FBXL11): ≤ 100 nM

Compound: CCOc1cc(-c2c(-c3cc(-c4c[nH]nn4)ccn3)ncn2C)ccc1F [Example 25, 2-[5-(3-ethoxy-4-fluorophenyl)-1-methylimidazol-4-yl]-4-(1H-triazol-4-yl)pyridine]
- IC50 (PHF8): 1000 to 10000 nM
- IC50 (FBXL10): ≤ 100 nM
- IC50 (FBXL11): 100 to 1000 nM

Compound: Clc1ccccc1Cn1cnc(-c2cc(-c3c[nH]nn3)ccn2)c1 [Example 2, 2-[1-[(2-chlorophenyl)methyl]imidazol-4-yl]-4-(1H-triazol-4-yl)pyridine]
- IC50 (PHF8): 100 to 1000 nM
- IC50 (FBXL10): ≤ 100 nM
- IC50 (FBXL11): 100 to 1000 nM

Compound: c1ccc(OCC2CC2)c(CCn2cnc(-c3cc(-c4c[nH]nn4)ccn3)c2)c1 [Example 11, 2-[1-[2-[2-(cyclopropylmethoxy)phenyl]ethyl]imidazol-4-yl]-4-(1H-triazol-4-yl)pyridine]
- IC50 (PHF8): 100 to 1000 nM
- IC50 (FBXL10): ≤ 100 nM

Compound: Cn1cnc(-c2cc(-c3c[nH]nn3)ccn2)c1-c1ccc(F)cc1OCC1CC1 [Example 4, 2-[5-[2-(cyclopropylmethoxy)-4-fluorophenyl]-1-methylimidazol-4-yl]-4-(1H-triazol-4-yl)pyridine]
- IC50 (PHF8): 1000 to 10000 nM
- IC50 (FBXL10): ≤ 100 nM
- IC50 (FBXL11): ≤ 100 nM

Compound: CC(c1ccccc1)n1cnc(-c2cc(-c3c[nH]nn3)ccn2)c1 (stereo not shown) [Example 5, 2-[1-(1-phenylethyl)imidazol-4-yl]-4-(1H-triazol-4-yl)pyridine]
- IC50 (PHF8): 100 to 1000 nM
- IC50 (FBXL10): ≤ 100 nM
- IC50 (FBXL11): ≤ 100 nM

Compound: Clc1ccccc1CCn1cnc(-c2cc(-c3c[nH]nn3)ccn2)c1 [Example 6, 2-[1-[2-(2-chlorophenyl)ethyl]imidazol-4-yl]-4-(1H-triazol-4-yl)pyridine]
- IC50 (PHF8): ≤ 100 nM
- IC50 (FBXL10): ≤ 100 nM
- IC50 (FBXL11): ≤ 100 nM

Compound: COc1cccc(Cn2cnc(-c3cc(-c4c[nH]nn4)ccn3)c2)c1F [Example 30, 2-[1-[(2-fluoro-3-methoxyphenyl)methyl]imidazol-4-yl]-4-(1H-triazol-4-yl)pyridine]
- IC50 (PHF8): 100 to 1000 nM
- IC50 (FBXL10): ≤ 100 nM
